According to US20090054328A1, “Reagents and Methods for Modulating Gene Expression Related to Hypertension” (The Board of Trustees of the University of Illinois, priority 2005, published 2009):

Key:
[1] = test system: SHR; test: Systolic blood pressure (tail-cuff) in SHR, drug given continuously for 3 weeks by osmotic pump; format: in vivo, rat; conditions: continuous 3 weeks
Procedure: The importance of regulating MLCK expression by Ras signaling in vivo was further investigated by treating SHR with U0126 continuously for 3 weeks. U0126 is a specific inhibitor MEK (Favata et al., 1998J. Biol. Chem. 273: 18623-18632), an upstream regulator of ERK in the Ras signaling pathway (Chien & Hoshijima, 2002, Id.). […] In these experiments, Systolic blood pressure (SBP) was measured using tail-cuff sphygmomanometry (IITC Incorporated/Life Sciences Institute, Woodland Hills Calif.). Drugs were delivered via an osmotic pump (DURECT Corporation, Cupertino, Calif.) implanted subcutaneously in the shoulder. The pumps (having a 2 mL capacity at a delivery rate of 2.45 μL/hour) were filled with 13.5 mM U0126 (BIOMOL Research Laboratories, Plymouth Meeting, Pa.) dissolved in 50% DMSO or vehicle alone. Three weeks later, rats were sacrificed and aortas were removed. Some vessels were processed for histology, while other tissue was immediately placed in ice-cold acetone containing 10% trichloroacetic acid (TCA) and 10 mM dithiothreitol (DTT). Endothelial cells were removed by gently rubbing the inside of the vessels with a cell lifter and connective tissue was removed by dissection. The cleaned vessels were then frozen on dry ice and stored at −80° C. for biochemical analysis.
Another experiment was conducted to determine if inhibiting Ras signaling could decrease blood pressure in SHR.

[2] = test system: WKY rats; conditions: age-matched WKY rats, U0126 3 weeks; returned to baseline within 2 weeks of treatment
Text: The importance of regulating MLCK expression by Ras signaling in vivo was further investigated by treating SHR with U0126 continuously for 3 weeks. U0126 is a specific inhibitor MEK (Favata et al., 1998J. Biol. Chem. 273: 18623-18632), an upstream regulator of ERK in the Ras signaling pathway (Chien & Hoshijima, 2002, Id.). Rats that were 8 weeks old at the start of treatment were studied because blood pressure increases and blood vessels become thicker between 8 and 12 weeks of age (Yamori, 1984, Id). In these experiments, Systolic blood pressure (SBP) was measured using tail-cuff sphygmomanometry (IITC Incorporated/Life Sciences Institute, Woodland Hills Calif.). Drugs were delivered via an osmotic pump (DURECT Corporation, Cupertino, Calif.) implanted subcutaneously in the shoulder. The pumps (having a 2 mL capacity at a delivery rate of 2.45 μL/hour) were filled with 13.5 mM U0126 (BIOMOL Research Laboratories, Plymouth Meeting, Pa.) dissolved in 50% DMSO or vehicle alone. Three weeks later, rats were sacrificed and aortas were removed. Some vessels were processed for histology, while other tissue was immediately placed in ice-cold acetone containing 10% trichloroacetic acid (TCA) and 10 mM dithiothreitol (DTT). Endothelial cells were removed by gently rubbing the inside of the vessels with a cell lifter and connective tissue was removed by dissection. […]

[3] = test system: ERK-P, MLCK expression and MLC-P
Procedure: Cells or pieces of blood vessels were extracted in buffer containing 9 M urea, 10 mM DTT and 20 mM Tris, pH 8.0. Protein concentrations were measured using the Bradford Protein Assay (BioRad, Richmond, Calif.) and equivalent amounts of protein were subjected to SDS-PAGE or urea-glycerol PAGE, Proteins separated by SDS-PAGE were transferred to nitrocellulose and probed with an antibody to MLCK (de Lanerolle et al., 1981, Proc. Natl. Acad. Sci. 78: 4738-4742), the broad specificity C4 antibody to actin (Lessard, 1988, Cell. Motil. Cytoskeleton. 10: 349-362), antibodies to Rho A or phosphorylated MPasel (Santa Cruz Biotechnology, Santa Cruz, Calif.) or an antibody to phosphorylated ERK½ (Cell Signaling Technology, Beverly, Mass.). Urea-glycerol PAGE was used to separate the unphosphorylated and phosphorylated forms of MLC20, which was then transferred to nitrocellulose and probed with an antibody to MLC20, wherein the stoichiometry of phosphorylation (mol PO4/mol MLC20) was calculated as previously described (Obara et al., 1989, Pflugers. Arch. 414: 134-138). Ail immunoreactive bands were visualized using enhanced chemiluminescence (Amersham Pharmacia Biotech, Piscataway, N.J.) and quantified densitometrically.
(§1) The importance of regulating MLCK expression by Ras signaling in vivo was further investigated by treating SHR with U0126 continuously for 3 weeks. U0126 is a specific inhibitor MEK (Favata et al., 1998J. Biol. Chem. 273: 18623-18632), an upstream regulator of ERK in the Ras signaling pathway (Chien & Hoshijima, 2002, Id.). Rats that were 8 weeks old at the start of treatment were studied because blood pressure increases and blood vessels become thicker between 8 and 12 weeks of age (Yamori, 1984, Id). In these experiments, Systolic blood pressure (SBP) was measured using tail-cuff sphygmomanometry (IITC Incorporated/Life Sciences Institute, Woodland Hills Calif.). Drugs were delivered via an osmotic pump (DURECT Corporation, Cupertino, Calif.) implanted subcutaneously in the shoulder. The pumps (having a 2 mL capacity at a delivery rate of 2.45 μL/hour) were filled with 13.5 mM U0126 (BIOMOL Research Laboratories, Plymouth Meeting, Pa.) dissolved in 50% DMSO or vehicle alone. Three weeks later, rats were sacrificed and aortas were removed. Some vessels were processed for histology, while other tissue was immediately placed in ice-cold acetone containing 10% trichloroacetic acid (TCA) and 10 mM dithiothreitol (DTT). Endothelial cells were removed by gently rubbing the inside of the vessels with a cell lifter and connective tissue was removed by dissection. The cleaned vessels were then frozen on dry ice and stored at −80° C. for biochemical analysis.
ERK-P, MLCK expression and MLC-P were assayed in U0126 SHR as described above.

[4] = test system: medial smooth muscle layer of aortas and mesenteric arteries
Text: as §1
Blood vessels were also assessed histologically. […] Cross-sections (5 microns thick) were cut, deparaffinized and stained with Gomort's Trichrome. Nuclei were visualized with Weigert's iron hematoxylin. The thickness of the medial layer was quantified using NIH ImageJ 1.32 software (National Institutes of Health, Bethesda, […].).

[5] = test system: MLCK expression in VSMC; test: Blocking Ras signaling in vitro in VSMC: MLCK expression and MLC-P by Western blot; format: cell-based, rat
Procedure: In view of the results obtained in Example 3 above, the effect of modulating SRF expression or activity on MLCK expression was assayed. To inhibit SRF activity, an adenovirus (AdSRF-S) lacking exons 4 and 5 was used to express a truncated, dominant negative form of SRF in cells (Davis et al., 2002, Id). Control cells were infected with a virus expressing GFP (AdGFP) at the same multiplicity of infection. In these experiments, VSMC were explanted from aortas of 4 to 7 weeks old SHR or WKY rats as previously described (Ross, 1971, J. Cell. Biol. 50: 172-186) and cultured in Dulbeccos's modified Eagles's medium (DMEM) with 10% fetal bovine serum (FBS). VSMC from WKY rats grown in 6-well plates (90-100% confluent) were infected for 2 hours with either an adenovirus that express a short form of SRF (AdSRF-S) (Davis et al., 2002, Id) or a control virus that expresses GFP (AdGFP). The viruses were washed out and the cells were grown as described above for 48 hours. VSMC were harvested and cell lysates were subjected to western blot analyses.
Dominant negative Ras decreased MLCK mRNA expression in VSMC from SHR (FIG. 4C, inset). To investigate downstream events of Ras signaling, VSMC from SHR were treated with antisense oligonucleotides to ERK, a known member of the Ras signaling pathway. […]

[6] = U0126-treated SHR compared to control

N#CC(=C(/N)Sc1ccccc1N)/C(C#N)=C(\N)Sc1ccccc1N [U0126]
systolic blood pressure at the end of the 3-week treatment period ([1]; SHR 8 weeks old at start, 13.5 mM U0126 in osmotic pump, vehicle 208.9±4.7): 150.4±4.1 mmHg | systolic blood pressure at the end of the 3-week treatment period ([1]; SHR 16 weeks old at start, osmotic pump, vehicle 221.6): 181.4±0.89 mmHg | SBP in normotensive WKY rats [2]: transient decrease | RhoA expression in aortas ([3]; SHR after U0126 treatment): No significant differences | phosphorylated myosin phosphorylase-1 (MPasel-P) in aortas ([3]; SHR after U0126 treatment): No significant differences | ERK phosphorylation (ERK-P) in blood vessels [3, 6]: decreased | MLC phosphorylation (MLC-P) in blood vessels [3, 6]: decreased | MLCK expression in blood vessels [3, 6]: decreased | medial smooth muscle layer in aortas and mesenteric arteries ([4]; SHR receiving U0126 compared to controls): thinner | total medial area of aortas ([4]; SHR, 3 weeks U0126, NIH ImageJ, vehicle 117.8±3.69): 66.4±2.79 relative units | total medial area of mesenteric arteries ([4]; SHR, 3 weeks U0126, mean from two animals, vehicle 26.88): 16.0 | MLCK expression in VSMC [5]: decreased
